# Source: PMC6801448, “The Antioxidant and Antiproliferative Activities of 1,2,3-Triazolyl-L-Ascorbic Acid Derivatives” (International Journal of Molecular Sciences, 2019)
# “Also recorded” adds a separate entry of the source.
# Columns and labels:
# [1] = test system: HCT-116 (colorectal carcinoma); assay: MTT proliferation assay, HCT-116; assay type: cell-based; details: Homo sapiens, 72 h
# In short: (§1)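 Following a 24 h attachment at 5000 cells per well, cultures in DMEM supplemented with 10% FBS were incubated with compound for 72 h; MTT formazan was then quantified at 570 nm to compute IC50.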
# [2] = test system: HeLa (cervical carcinoma); assay: MTT proliferation assay, HeLa; assay type: cell-based; details: Homo sapiens, 72 h
# In short: as §1
# [3] = test system: HFF-1 (foreskin fibroblasts); assay: MTT proliferation assay, HFF-1; assay type: cell-based; details: Homo sapiens, 72 h, normal foreskin fibroblasts
# Experimental: (§2) Human tumor cell lines HeLa (cervical carcinoma), SW620 (colorectal adenocarcinoma, metastatic), A549 (lung adenocarcinoma), MCF−7 (breast adenocarcinoma), CFPAC-1 (pancreatic adenocarcinoma, metastatic), HCT-116 (colorectal carcinoma), and HepG2 (hepatocellular carcinoma), and normal cell lines HFF-1 (foreskin fibroblasts) and WI-38 (immortalized human lung fibroblast), were from the US American Type Culture Collection (ATCC, Manassas, VA, USA). Cells were cultured in a liquid nutrient medium (Dulbecco’s Modified Eagle Medium, LONZA, Basel, Switzerland) supplemented with 10% fetal bovine serum (FBS, Gibco, Grand Island, NY, USA), 2 mM L-glutamine (GIBCO, Grand Island, NY, USA), 100 μg/mL penicillin, and 100 μg/mL streptomycin (LONZA, Basel, Switzerland), in an incubator (NÜVE, Ankara, Turkey), at a humid atmosphere with 5% CO2 at 37 °C. Trypsin/EDTA Solution (Lonza, Basel, Switzerland), was used for cell passaging and cell detachment.
# (§3) Adherent cells were seeded on 96 well microtiter plates (Falcon, New York, NY, USA) at a seeding density of 5000 cells per well, added in 150 μL of cell suspension in a nutrient medium. 24 h after seeding, cells were treated with compound 4b–4g, 4i, 4k–4t, 4v, 7c–7g, and 7i–7q dilutions in the range of 0.01 μM to 100 μM. L-ascoric acid (Sigma Aldrich, Darmstadt, Germany) and Carboxyamidotriazole (Sigma Aldrich, Darmstadt, Germany) were used as control compounds. Incubation of the cells with the compounds were performed for 72 h in a 5% CO2, in humid atmosphere at 37 °C. After incubation, nutrient medium was removed and 40 μL of the MTT reagent ([…]-2,5-diphenyltetrazole bromide (Invitrogen, Carlsbad, CA, USA) was added to each well. 3 h after incubation, 160 μL of DMSO (VWR CHEMICALS, Radnor, PA, USA) were added to each well to dissolve the crystals of purple formazane. The absorbance was measured at 570 nm (TECAN SUNRISE Microtiter plate reader (Männedorf, Switzerland). The experimentally measured optical densities (OD) were converted to the PG (percentage of growth), using the formulas according to the protocol assumed by NIH (National Institute of Health). The IC50 values (concentration causing 50% cell growth inhibition) for each compound were calculated by regression analysis of the survival count curve of the concentrations of the tested compounds. The results were processed in Excel 2010 (Microsoft, Redmond, WA, USA).
# MCF-7 cells = assay: Seahorse XF Cell Mito Stress Test, MCF-7; assay type: cell-based, Human
# Experimental: The Seahorse XF Cell Mito Stress Test was used for measurements of mitochondrial respiration by direct assessment of the oxygen consumption rate (OCR), of treated and untreated cells on the Seahorse XFe24 Analyzer, (Agilent, Santa Clara, CA, USA). Key parameters of the mitochondrial function were measured by direct assessment of the OCR, by use of the Mito Stress Test (Agilent, Agilent, Santa Clara, CA, USA). The Mito Stress Test uses modulators of respiration that target components of the electron transport chain in the mitochondria. The compounds added to the reaction were: oligomycin, mitochondrial oxidative phosphorylation uncoupler carbonyl cyanide-4-(trifluoromethoxy)phenylhydrazone (FCCP), and the mix of rotenone and antymicin A. These were directly injected to the cell growth medium containing cells treated with selected L-ASA derivatives to determine the production of ATP, respiration at maximal level, and the non-mitochondrial respiration. Measured parameters were used for calculation of the proton leakage, spare respiratory capacity, and basal respiration. The assay was performed according to the manufacturer’s instructions (SeaHorse—Mito Stress Test: Agilent, Santa Clara, CA, USA). Briefly, selected compound 4e was tested due to its selective antiproliferative effect on MCF-7 cells. […] […] The experiment was performed with biological duplicates.
# [4] = test system: tested cell lines (A549, CFPAC-1, HCT-116, HeLa, HepG2, MCF-7, SW620, WI-38, HFF-1); assay: MTT proliferation assay, whole tested cell panel; assay type: cell-based, Human; details: 0.01 µM to 100 µM, 72 h
# Experimental: The C-6 substituted 1,2,3-triazole derivatives of L-ASA within the C5-OH group ([…], 4i, 4k−4t, and 4v) and with the C4=C5 double bond (7c−7g and 7i−7q) were evaluated against seven malignant tumor cell lines: lung adenocarcinoma (A549), ductal pancreatic adenocarcinoma (CFPAC-1), colorectal carcinoma (HCT-116), cervical carcinoma (HeLa), hepatocellular carcinoma (HepG2), breast adenocarcinoma (MCF-7), colorectal adenocarcinoma, and metastatic (SW620); as well as normal cell lines: lung fibroblasts (WI-38) and foreskin fibroblasts (HFF-1) (Table 3, Table S1, Supplementary Information). L-ASA was used as a positive control, and carboxyamidotriazole, a known antiproliferative agent that inhibits tumor cell growth, invasion, and metastasis, and 5-fluorouracil (5-FU), were used as reference compounds.
# as §2, §3
# [5] = set-up: method as in PMID 20925411; details: experimental acid dissociation constant; cited from earlier work
# NOS2 = assay: Western blot of NOS2 in MCF-7 cells; assay type: cell-based, Human; details: MCF-7, 6.72 µM, 48 h
# Experimental: Protein lysates were prepared using RIPA buffer containing cocktail of protease and phosphatase inhibitors (Roche, Basel, Switzerland). Amounts of 50 μg of proteins were resolved on 12% SDS polyacrylamide gels using the Mini-protean cell (Bio-Rad, Hercules, CA, USA). The membranes were incubated with primary antibodies raised against hydroxy-HIF-1α (Pro564) (HIF-1α, 1:1000, rabbit mAb, Cell Signaling Technology, NL) and NOS2 (1:500, mouse mAb, SantaCruzBiotechnology, Dallas, TX, USA) at 4 °C overnight. A secondary antibody linked to anti-mouse (1:1000, Dako, Santa Clara, CA, USA) was used. The signal was visualized by the Western Lightening Chemiluminescence Reagent Plus Kit (Perkin Elmer, Massachusetts, MA, USA) on the ImageQuant LAS500 (GE Healthcare, Chicago, IL, USA), and as a loading control, α-tubulin (1:1000, mouse mAb, Sigma, Sigma Aldrich, Darmstadt, Germany) was used. The signal intensities of bands were normalized and compared in Quantity One software (Bio-Rad, Hercules, CA, USA). Differences in protein relative expression status obtained by western blot analysis were analyzed by two-tailed, paired t-tests (p < 0.05) in the Statistica software package (v.12.0).
IC50 [1] [µM],IC50 [2] [µM],SMILES,IC50 [3] [µM],"mitochondrial activity (MCF-7 cells; 24 h, lower concentration (50 mM), Figure 5 panel A (MCF-7 and HFF-1))","basal cell respiration and ATP production (MCF-7 cells; MCF-7, 24 h, higher concentrations)",antiproliferative / cytotoxic effect on the tested cell lines (in words) [4],"pKa,2 (experimental) [5]",NOS2 expression (NOS2),"basal respiration and ATP production (MCF-7 cells; MCF-7, 24 h, IC50 concentration (6.72 µM) and 2 × IC50 (13.44 µM))","cellular mitochondrial metabolism (MCF-7 cells; MCF-7, 24 h, lower tested concentration (3.36 µM))"
> 100,> 100,"O=C1O[C@H]([C@@H](O)CO)C(O)=C1O [L-ASA, L-ascorbic acid]",> 100,did not act on the mitochondrial activity,decreased the basal cell respiration and ATP production,no effects on the cell growth,11.4,,,
> 100,> 100,"O=C1O[C@H]([C@@H](O)Cn2cc(-c3ccc(Br)cc3)nn2)C(O)=C1O [Compound 4e, 6-[4-(4-bromophenyl)-1,2,3-triazol-1-yl]-6-deoxy-L-ascorbic acid]",> 100,,,,,decreased expression; also recorded: somewhat decreased,increased the basal respiration and ATP production,lowered cellular mitochondrial metabolism
